The values that follow come from patent publication US20220170911A1, “CELL CONSTRUCT AND CELL CONSTRUCT PRODUCTION METHOD” (priority 2019, published 2022).

Common to all, as to type: cell-based, human
The subject of assay [1] is cell structure including vascular endothelial cells and tissue product including no vascular endothelial cell. Nature of the assay: Evaluation of effect of uptake inhibitor for fatty acid (BODIPY-modified fatty acid fluorescence). Conditions: 100 ng/mL TNFα in DMEM with 4 μM BODIPY-modified fatty acid; day 14; 0, 5, 30, 60 minutes; with and without vascular endothelial cells; control without TNFα defined as 100%; FIG. 18. On the procedure:
A cell structure including vascular endothelial cells and a tissue product including no vascular endothelial cell were produced in the same manner as in Test Example 10, and evaluation was carried out with the cell structure and tissue product on day 14 after the beginning of formation thereof sCMF produced by using a sponge fragment of porcine skin-derived collagen I was used.
Into DMEM culture medium containing 4 μM BODIPY-modified fatty acid in place of NBD-modified glucose in (Evaluation of Glucose Uptake) of Test Example 10, 100 ng/mL TNFα as an uptake inhibitor for fatty acid was introduced. The cell structure including vascular endothelial cells and the tissue product including no vascular endothelial cell were each incubated, and fluorescence measurement was carried out after 0 minutes, 5 minutes, 30 minutes, and 60 minutes in the same manner as in Test Example 10. The number of samples for each treatment was 5 (n=5), and fatty acid uptake in the same control culture medium as in Test Example 10, which contained no TNFα, was defined as 100%.

For assay [2], the system named is tissue product including no vascular endothelial cell. Nature of the assay: Evaluation of glucose uptake (NBD-modified glucose fluorescence) with uptake inhibitor and promoter. To be noted: 125 μM apigenin and/or 10 μg/mL insulin in DMEM with 0.1 mg/mL NBD-modified glucose; day 7 tissue product; 20-135 minutes; control medium defined as 100%; FIG. 16/17(a). On the procedure:
A cell structure provided with a vascular network was produced with the same procedure as in Test Example 2, except that 6500 cells of mature adipocytes, 5500 cells of adipose stem cells, 2750 cells of vascular endothelial cells, 0.025 mg of the defibered collagen component (sCMF), 0.015 mg of fibrinogen, and 0.007 U of thrombin were used per tissue. The materials were prepared for 96 wells all at once to afford a gel, which was seeded on each well of a 96-well plate. […] The cell structures were incubated, and fluorescence measurement was carried out after 10 minutes, 30 minutes, 60 minutes, 120 minutes, and 150 minutes. Before the measurement at each timing, the culture medium for a cell structure to be subjected to measurement was substituted with 300 μL of PBS buffer, and the fluorescence was measured with a plate reader (Synergy HTX, manufactured by BioTek Instruments, Inc.) to determine the cumulative value of fluorescence intensity in the image. […] The tissue product was incubated, and fluorescence measurement was carried out after 20 minutes, 45 minutes, 70 minutes, 90 minutes, and 135 minutes in the same manner as in Test Example 10. […]

Assay [3] has the same test system. The assay is described as follows: Evaluation of release of glucose and fatty acid taken up, with release promoter. To be noted: 2 mM isoproterenol, then 30 minutes incubation, day 14 tissue product. On the procedure: A tissue product was produced in the same manner as for the cell structure in Test Example 10, except that no vascular endothelial cell was included, and evaluation was carried out with the tissue product on day 14 after the beginning of formation thereof.
In order to measure the amount of release of glucose once taken up, incubation was performed on DMEM culture medium supplemented with 0.1 mg/mL NBD-modified glucose as in Test Example 10 for 60 minutes, and then the culture medium was substituted again with 300 μL of DMEM culture medium supplemented with NBD-modified glucose, or with 300 μL of DMEM culture medium supplemented with 2 mM isoproterenol and NBD-modified glucose. Thereafter, incubation was performed for 30 minutes to allow glucose to be released from the cellular tissue, and fluorescence measurement was carried out. […]
The number of samples for each treatment was 5 […], fluorescence intensity for the tissue product with the culture medium containing no isoproterenol was defined as 100%, and what % of the amount of uptake was released was determined by comparing with fluorescence intensity for the tissue product with the culture medium containing isoproterenol. […]

Assay [4] has the same test system. Nature of the assay: Evaluation of fatty acid uptake (BODIPY-modified fatty acid fluorescence) with uptake promoter. Conditions: 10 μg/mL insulin in DMEM with 4 μM BODIPY-modified fatty acid; day 7 tissue product; 5, 30, 60 minutes; control without insulin defined as 100%; FIG. 17(b). On the procedure:
A tissue product including no vascular endothelial cell was produced in the same manner as in Test Example 10, and evaluation was carried out with the tissue product on day 7 after the beginning of formation thereof sCMF produced by using a mixture of a sponge fragment of porcine skin-derived collagen I and a sponge fragment of porcine skin-derived collagen III was used.
A tissue product was incubated in the same manner as in Test Example 10, except that, in place of NBD-modified glucose in Test Example 10, 4 μM BODIPY-modified fatty acid (Invitrogen (R) BODIPY (R) 500/510 Cl, C12 (4,4-Difluoro-5-Methyl-4-Bora-3a,4a-Diaza-s-Indacene-3-Dodecanoi c Acid), Thermo Fisher Scientific) was added to DMEM culture medium, and fluorescence measurement was carried out after 5 minute, 30 minutes, and 60 minutes. Further, 10 μg/mL insulin was added to the DMEM culture medium containing 4 μM BODIPY-modified fatty acid, and fluorescence measurement was carried out in the same manner.
The number of samples for each treatment was 5 (n=5), and fatty acid uptake in the same control culture medium as in Test Example 10, which contained no insulin, was defined as 100%.

In the case of TNFα, the “amount of uptake of fatty acid” value in assay [1] is “reduced”.

`O=c1cc(-c2ccc(O)cc2)oc2cc(O)cc(O)c12` [apigenin]: the “amount of uptake of glucose” value in assay [2] is “reduced”. With `CC(C)NCC(O)c1ccc(O)c(O)c1` (stereo not drawn) [isoproterenol], the “release of fatty acid taken up” value in assay [3] (60 minutes uptake of BODIPY-modified fatty acid, FIG. 19(b)) is on record as “promoted”. Further, the “release of glucose taken up” value in assay [3] (60 minutes uptake of NBD-modified glucose, FIG. 19(a)) is listed as “promoted”. Consider Insulin from bovine pancreas, for which, in assay [2], the “amount of uptake of glucose” value is “increased”. In assay [4], the “amount of fatty acid uptake” value was “promoted”.
